Patent US20240336608A1, “IL4I1 INHIBITORS AND METHODS OF USE” (Merck Sharp & Dohme LLC, priority 2023, published 2024)

Biological target: T1, recombinant IL4I1 (Homo sapiens, UniProt Q96RQ9)
T1 construct: purchased R&D Systems 5684-AO-020
T1 sequence (Q96RQ9 22-567): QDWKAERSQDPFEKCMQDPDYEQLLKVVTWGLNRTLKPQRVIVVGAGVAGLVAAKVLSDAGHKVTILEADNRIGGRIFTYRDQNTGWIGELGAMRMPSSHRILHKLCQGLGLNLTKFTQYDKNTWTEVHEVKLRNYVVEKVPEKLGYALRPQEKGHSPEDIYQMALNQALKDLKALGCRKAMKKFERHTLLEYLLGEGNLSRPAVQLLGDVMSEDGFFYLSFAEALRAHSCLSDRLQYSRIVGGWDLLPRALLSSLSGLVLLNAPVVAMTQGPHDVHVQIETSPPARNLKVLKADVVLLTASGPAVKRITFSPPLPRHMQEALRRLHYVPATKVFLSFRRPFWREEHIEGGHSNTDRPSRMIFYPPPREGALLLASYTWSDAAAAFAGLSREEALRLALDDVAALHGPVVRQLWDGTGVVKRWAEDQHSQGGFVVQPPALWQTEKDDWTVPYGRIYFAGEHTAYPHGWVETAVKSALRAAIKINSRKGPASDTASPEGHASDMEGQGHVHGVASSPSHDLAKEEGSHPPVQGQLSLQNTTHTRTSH
Assay: IL4I1 Enzymatic Assay (Amplex Red/HRP coupled detection of H2O2, fluorescence)
Type: biochemical
Conditions: 1 nM recombinant IL4I1; four-hour pre-incubation with compound; 1 mM each Phe, Tyr, Trp; ten-point titration
Method in brief: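 H2O2 output was coupled to resorufin fluorescence (ex 544/em 590) via 0.05 mM Amplex Red and 1 U/mL HRP. Substrate: Phe, Tyr, Trp at 1 mM each; enzyme 1 nM, 4 h compound pre-incubation, 120 min reaction, pH 7.0 Hepes. EC50 by nonlinear four-parameter regression, 1:3 ten-point titration.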

In the case of `O=C(NCc1nnc(-c2ccccc2)s1)c1cn(CC(O)C2CC2)nn1` (stereo not drawn) [Example 181, 1-(2-cyclopropyl-2-hydroxyethyl)-N-((5-phenyl-1,3,4-thiadiazol-2-yl)methyl)-1H-1,2,3-triazole-4-carboxamide], the EC50 is reported as 239 nM.
With `O=C(NCc1nnc(-c2ccccc2)s1)c1cn([C@H]2CCOC[C@@H]2O)nn1` [Example 184, 1-((3R,4S)-3-hydroxytetrahydro-2H-pyran-4-yl)-N-((5-phenyl-1,3,4-thiadiazol-2-yl)methyl)-1H-1,2,3-triazole-4-carboxamide] the EC50 was 77 nM.
`Cc1ccc(-n2cc(C(=O)NCc3nnc(-c4ccc(F)c(F)c4)s3)nn2)c(C)n1` [Example 106, N-((5-(3,4-difluorophenyl)-1,3,4-thiadiazol-2-yl)methyl)-1-(2,6-dimethylpyridin-3-yl)-1H-1,2,3-triazole-4-carboxamide] showed an EC50 of 695 nM.
Work on `O=C(NCc1nnc(-c2ccccc2)s1)c1noc2ccccc12` [Example 215, N-[(5-phenyl-1,3,4-thiadiazol-2-yl)methyl]-1,2-benzoxazole-3-carboxamide] yielded an EC50 of 127 nM.
`Cc1n[nH]c(C)c1-n1cc(C(=O)NCc2nnc(-c3ccccc3)s2)nn1` [Example 346, 1-(3,5-dimethyl-1H-pyrazol-4-yl)-N-((5-phenyl-1,3,4-thiadiazol-2-yl)methyl)-1H-1,2,3-triazole-4-carboxamide] gave an EC50 of 108 nM.
`N#CC1(Cn2cc(C(=O)NCc3nnc(-c4ccccc4)s3)nn2)CC1` [Example 87, 1-((1-cyanocyclopropyl)methyl)-N-((5-phenyl-1,3,4-thiadiazol-2-yl)methyl)-1H-1,2,3-triazole-4-carboxamide] was tested, and the EC50 was 18 nM.
For `CC(NC(=O)c1cn(C)nn1)c1nnc(-c2ccccc2)s1` (single isomer, unassigned) [Example 258, 1-methyl-N-(1-(5-phenyl-1,3,4-thiadiazol-2-yl)ethyl)-1H-1,2,3-triazole-4-carboxamide], the EC50 was 492 nM.
With `CCC(C)Cn1cc(C(=O)NCc2nnc(-c3ccccc3)s2)nn1` (stereo not drawn) [Example 89, 1-(2-methylbutyl)-N-((5-phenyl-1,3,4-thiadiazol-2-yl)methyl)-1H-1,2,3-triazole-4-carboxamide] the EC50 was 37 nM.
For `CC1(O)CCC(n2cc(C(=O)NCc3nnc(-c4ccccc4)s3)nn2)CC1` (stereo not drawn) [Example 97, 1-(4-hydroxy-4-methylcyclohexyl)-N-((5-phenyl-1,3,4-thiadiazol-2-yl)methyl)-1H-1,2,3-triazole-4-carboxamide], the EC50 was 486 nM.
`COCCOCCn1cc(C(=O)NCc2nnc(-c3ccccc3)s2)nn1` [Example 85, 1-(2-(2-methoxyethoxy)ethyl)-N-((5-phenyl-1,3,4-thiadiazol-2-yl)methyl)-1H-1,2,3-triazole-4-carboxamide] showed an EC50 of 15 nM.
`CC1(Cn2cc(C(=O)NCc3nnc(-c4ccccc4)s3)nn2)COC1` [Example 161, 1-((3-methyloxetan-3-yl)methyl)-N-((5-phenyl-1,3,4-thiadiazol-2-yl)methyl)-1H-1,2,3-triazole-4-carboxamide] gave an EC50 of 22 nM.
In the case of `Cc1nc(C2COC2)ccc1-n1cc(C(=O)NCc2nnc(-c3ccccc3)s2)nn1` [Example 277, 1-(2-methyl-6-(oxetan-3-yl)pyridin-3-yl)-N-((5-phenyl-1,3,4-thiadiazol-2-yl)methyl)-1H-1,2,3-triazole-4-carboxamide], the EC50 is reported as 179 nM.
With `CC(C)(C)c1cc(C(=O)NCc2nnc(-c3ccccc3)s2)[nH]n1` [Example 9, 3-(tert-butyl)-N-((5-phenyl-1,3,4-thiadiazol-2-yl)methyl)-1H-pyrazole-5-carboxamide] the EC50 was 480 nM.
`CC(C)(C)Cn1cc(C(=O)NCc2nnc(-c3ccccc3)s2)nn1` [Example 86, 1-neopentyl-N-((5-phenyl-1,3,4-thiadiazol-2-yl)methyl)-1H-1,2,3-triazole-4-carboxamide] showed an EC50 of 42 nM.
`O=C(NCc1nnc(-c2ccncc2)s1)c1cn(C2CC2)nn1` [Example 243, 1-cyclopropyl-N-((5-(pyridin-4-yl)-1,3,4-thiadiazol-2-yl)methyl)-1H-1,2,3-triazole-4-carboxamide] showed an EC50 of 23 nM.
